From US10919889B2, “Chiral heterocyclic compound with hedgehog pathway antagonist activity, method and use thereof” (SUZHOU KINTOR PHARMACEUTICALS, INC., priority 2016, dated 2021)
“And” between values parts separate entries of the source, which are not always exact repeats. Identical values can stand only once. Like-named read-outs stand apart in the source and are kept apart here.

Tests used:
Hh signaling pathway [1] = test: NIH3T3-GRE-Luc luciferase reporter assay (primary assay); format: cell-based
From the text: NIH3T3 cells (CRL-1658, ATCC) were maintained in DMEM (Gibico) supplemented with 10% FBS (Hyclone). GRE-Luc plasmid was generated by inserting 8×Gli-1 responsive element (GRE) into the multiple cloning site of pGL4.26 vector (Promega). NIH3T3-GRE-Luc reporter cell line was established by hygromycin (Invitrogen) selection after transfected with GRE-Luc luciferase reporter plasmid. Single clones were validated by the induction of luciferase by recombinant sonic hedgehog (sHh) protein or small molecule agonist SAG (ABIN629346). Selected clone was used to monitor the Hh signaling.
(§1) The NIH3T3-GRE-Luc cells were maintained in complete culture medium (DMEM with 4 mM L-Gln, 1.5 g/L sodium bicarbonate and 4.5 g/L glucose supplemented with 100 μg/mL hygromycin and 10% FBS). When confluent, the cells were trypsinized and re-suspended in assay medium (0.5% serum-containing DMEM). After 100 µL/well of cells suspension was added to the 96-well-plate (Final cell concentration is 15,000 cells/well), cells were cultured for additional 48 hours before adding the compounds.
Compounds were serially diluted in DMSO and further diluted with assay medium. In an embodiment, 10 nM SAG was added in assay medium as the agonist of Hh signaling. After the compounds and agonist were prepared, the medium was removed carefully. 100 μL of assay medium containing compound and agonist was added to the cell with care. Cell plates were incubated at 37° C. for additional 48 hours.
(§2) Following the 48 hours incubation, 40 μL/well of luciferase media (Brigh-Glo, Promega) was added to the cells. The plate was incubated at room temperature for 5 minutes under gentle shaking. Luminescence signal was measured with plate reader (PHERAstar FS, BMG). The potency of compounds was calculated based on the inhibition of luminescence signaling.
NIH3T3 cells (CRL-1658, ATCC) were maintained in DMEM (11965, Gibico) supplemented with 10% FBS (Hyclone). GRE-Luc plasmid was generated by cloning 8×Gli-1 responsive element (GRE) into the MCS of pGL4.26 (Promega). NIH3T3-GRE-Luc reporter cell lines were established by hygromycin (Invitrogen) selection after transfection with GRE-Luc luciferase reporter plasmid. Single clones were validated for the assay quality with N-terminal fragment of recombinant sonic hedgehog protein or small molecule agonist SAG (ABIN629346). Selected clone were used to monitor the Hh signaling.
as §1, with “ug/ml” for “μg/mL”, “resuspended” for “re-suspended”, “ul/well” for “µL/well”
Compounds were serially diluted in DMSO and further diluted with assay medium. In an embodiment, 10 nM SAG was added in assay medium as the agonist of Hh signaling. After the compounds and agonist were prepared, carefully remove medium (Aspirate the medium with pipette instead of vacuum, or else the NIH3T3 cells monolayer will be detached). 100 ul of assay medium containing compound or agonist was added to the cell with care. Cell plates were incubated at 37 degree for additional 48 hours.
as §2, with “ul/well” for “μL/well”, “min” for “minutes”, “basing” for “based”

[2] = Rat pharmacokinetics experiments; format: in vivo, Sprague-Dawley rats; settings: for AUC(0-t): read-out: Area under the curve AUC0-24 h; for bioavailability: po
Procedure: Male Spraguee-Dawley rats (body weight: 220 g˜250 g) were purchased from Slac Laboratory Animals (Shanghai). […] Blood samples were taken through the posterior orbital vein and the blood samples were placed in a tube containing EDTA (as an anticoagulant) and stored in a −80° C. environment after centrifugation with a refrigerated centrifuge. Blood sample (at an amount of folds of 25 μL) was taken and cold acetonitrile containing the internal standard (100 μL) was added. Sample was centrifuged for 10 minutes to precipitate the plasma protein. Finally, supernatant (10 μL) was injected into the LC-MS/MS system for analysis.
LC-MS/MS analysis method: All samples were analyzed by LC-MS/MS system of API4000 QTRAP mass spectrometer equipped with LC-20AD and CBM-20A controllers, DGU-20A solvent degasser and SIL-20A autosampler (Japan Shimadzu, Colombia, Md., USA). A Bona Aeger Venusil XBP C18 column (50×2.1 mm; filler 5 micron particle size) was used for HPLC separation. The column temperature was maintained at 40° C. The flow rate was 0.3 mL/min and the total run time was 6 minutes.
For the quantification of MS/MS, the API4000 QTRAP mass spectrometer was operated in an ESI positive mode with multiple reaction monitoring (MRM). All compounds and internal standards were set to be monitored during a residence time of 100 milliseconds. The other MS/MS parameters were set as follows: atomization gas (GS1) at 30 psi, 551b turbine pressure, 4500V ion spray voltage, 500° C. ion source temperature. For the selected ion transitions, each analyte was tested at the optimal sensitivity of the cluster potential (DP) and the collision energy (CE). Finally, the data was collected and processed using AB SCIEX Analysist 1.5.2 data collection and integration software.
Test subjects, Sprague-Dawley rats (body weight from about 220 g to about 250 g), were purchased from Slac Laboratory Animals (Shanghai, China). All compounds tested at 1 mg/mL concentration, either intravenous injected at a tail vein at 1 mL/kg dosage for one group of test subjects or administered orally at a dose of 10 mL/kg in another group of test subjects. Then aliquots of blood samples were collected by retro-orbital venous plexus puncture at time intervals after the injection/administration. The blood samples were kept in tubes containing EDTA, centrifuged and stored at −80° C. before analysis. Blank plasma was collected by the same method before rats were treated with compounds. Plasma samples for analysis were obtained by removing about 25 μL from the saved blood sample; adding cold acetonitrile (about 100 μL) as internal standard; centrifuged for 10 minutes to precipitate plasma proteins; and collect about 10 μL of the upper clear solution for analysis done by an LC-MS/MS system.
All samples were analyzed by an API 4000 QTRAP® LC/MS/MS System equipped with Shimadzu LC-20AD pump, Shimadzu CBM-20A controller, SIL-20A autosampler and DGU-20A degasser (Shimadzu, Columbia, Md., USA). A Venusil XBP C18 HPLC Column (2.1×50 mm, 5 μm) (Bonna-Agela Technologies) was used for HPLC separation at isocratic temperature of 40° C. Flow rate was kept at 0.3 mL/min and the total run time was kept at 6 minutes.
Quantification by MS/MS is done using the above-described API 4000 QTRAP mass spectrometer equipped with multiple reaction monitoring (MRM) and positive electrospray ionization (ESI+) modes. All compounds and internal standard were detected at […] of about 100 milliseconds. Other parameters for MS/MS are shown below: Ion Source Gas 1 (GS1) at 30 psi, turbine pressure at 55 pounds, ion spray voltage at 4500 V, and ion source temperature at 500° C. MRM measurements of the analytes were performed using declustering potential (DP) and […] values optimized for each analyte. Finally, all of the operations, the acquisition and analysis of data were controlled by Analyst (version 1.5.2, AB Sciex, USA).

[3] = Oxidative metabolism found in pharmacokinetic studies; settings: benzylic oxidation at the C-5 methylene group
Hh signaling pathway [4] = settings: cited from earlier work
[5] = IC50 value of Vismodegib over that of the tested compound in the same assay
[6] = primary assay, Table 5, read-out: SMO IC50
[7] = previous patent, read-out: IC50 of NIH3T3-GRE-Luc, reported in WO2014113191A1

Cc1cnc(-c2cc(N3CCc4nc(NC5CC5)ncc4C3C)ncc2Cl)c(C)c1 (stereo not shown) [F]
Ratio (Hh signaling pathway [1]; [5]): 4.5 | IC50 (Hh signaling pathway [1]; [6]): 4.4 nM

Cc1cnc(-c2cc(N3CCc4nc(NC5CC5)ncc4[C@@H]3C)ncc2Cl)c(C)c1 [Compound B3, (5 S)-6-[5-chloro-4-(3,5-dimethyl-2-pyridyl)-2-pyridyl]-N-cyclopropyl-5-methyl-7,8-dihydro-5H-pyrido[4,3-d]pyrimidin-2-amine]
Ratio (Hh signaling pathway [1]; [5]): 3.1 | IC50 (Hh signaling pathway [1]; [6]): 4 nM

Cc1cnc(-c2cc(N3CCc4nc(N5CCC(O)CC5)ncc4C3)ncc2Cl)c(C)c1 [Compound A-55, reference compound]
AUC0-24 h ([2]; I.V., 2 mg/kg): 1780 ng·h/mL | CL ([2]; I.V., 2 mg/kg): 18.6 mL/min/kg | t1/2 ([2]; I.V., 2 mg/kg): 1 h | AUC0-24 h ([2]; P.O., 10 mg/kg): 5540 ng·h/mL | Vd ([2]; male, Sprague-Dawley, plasma, intravenous injection, 2 mg/kg, read-out: Apparent volume of distribution Vd, ss): 1.7 L/kg | AUC(0-t) ([2]; male, Sprague-Dawley, plasma, intravenous injection, 2 mg/kg): 1780 ng·h/mL | clearance ([2]; male, Sprague-Dawley, plasma, intravenous injection, 2 mg/kg, read-out: Clearance CL): 18.6 mL/min/kg | half-life ([2]; male, Sprague-Dawley, plasma, intravenous injection, 2 mg/kg, read-out: Half-life t1/2 (converted)): 1 h | AUC(0-t) ([2]; male, Sprague-Dawley, plasma, oral, 10 mg/kg): 5540 ng·h/mL | Cmax ([2]; male, Sprague-Dawley, plasma, oral, 10 mg/kg, read-out: Maximum plasma concentration Cmax): 2180 ng/mL | Tmax ([2]; male, Sprague-Dawley, plasma, oral, 10 mg/kg, read-out: Peak time Tmax): 0.5 h | bioavailability ([2]; male, Sprague-Dawley, plasma, 10 mg/kg, P.O. 10 mg/kg vs I.V. 2 mg/kg, read-out: F %): 62% | bioavailability ([2]; male, Sprague-Dawley, plasma, 10 mg/kg, oral 10 mg/kg vs intravenous 2 mg/kg, read-out: Bioavailability F %): 62% | bioavailability ([2]; male, Sprague-Dawley, plasma, 10 mg/kg, oral, read-out: bioavailability): 62% | susceptibility to oxidative metabolism (in words) [3]: easy to metabolized via benzylic oxidation | IC50 (Hh signaling pathway [4]; [7]): 5.5 nM

Cc1cnc(-c2cc(N3CCc4nc(NC(=O)C(C)(C)C)ncc4[C@H]3C)ncc2Cl)c(C)c1 [Compound B6, (R)—N-(6-(5′-chloro-3,5-dimethyl-[2,4′-bipyridin]-2′-yl)-5-methyl-5,6,7,8-tetrahydropyrido[4,3-d]pyrimidin-2-yl)pivalamide]
Ratio (Hh signaling pathway [1]; [5]): 6.7 | IC50 (Hh signaling pathway [1]; [6]): 3.9 nM

Cc1cnc(-c2cc(N3CCc4nc(N5CCC(O)C5)ncc4C3C)ncc2Cl)c(C)c1 (stereo not shown) [D]
Ratio (Hh signaling pathway [1]; [5]): 3.2 | IC50 (Hh signaling pathway [1]; [6]): 4.2 nM

Cc1cnc(-c2cc(N3CCc4nc(N5CCC(O)CC5)ncc4C3=O)ncc2Cl)c(C)c1 [Compound A-97]
ratio to vismodegib (relative efficacy), WO2014113191A1 (Hh signaling pathway [4]; previous patent): about 0.5 fold | ratio to vismodegib (relative efficacy), WO2014113191A1 (Hh signaling pathway [4]; previous patent, listed as A97): 0.54 fold | IC50 (Hh signaling pathway [4]; [7]): 84 nM

Cc1cnc(-c2cc(N3CCc4nc(N5CCC(O)C5)ncc4C3=O)ncc2Cl)c(C)c1 (stereo not shown) [C]
Ratio (Hh signaling pathway [1]; [5]): 0.16 | IC50 (Hh signaling pathway [1]; [6]): 272 nM

CS(=O)(=O)c1ccc(C(=O)Nc2ccc(Cl)c(-c3ccccn3)c2)c(Cl)c1 [vismodegib, reference compound]
IC50 (Hh signaling pathway [1]; vismodegib control in the same assay as the test compound of the line, read-out: Effect IC50 (nM)(GRE reporter assay: vismodegib)): 13.4 nM and 17.9 nM and 19.3 nM | IC50 (Hh signaling pathway [1]; vismodegib control in the same assay as the test compound of the line, read-out: SMO IC50 (nM) (vismodegib)): 26 nM | IC50 (Hh signaling pathway [4]; reference in the run of A-55 (8.8) and of A-97 (45), read-out: IC50 of reference vismodegib, reported in WO2014113191A1): 8.8 nM and 45 nM

Cc1cnc(-c2cc(N3CCc4nc(NC5CC5)ncc4[C@H]3C)ncc2Cl)c(C)c1 [Compound B4, (R)-6-(5′-Chloro-3,5-dimethyl-[2,4′-bipyridin]-2′-yl)-N-cyclopropyl-5-methyl-5,6,7,8-tetrahydropyrido[4,3-d]pyrimidin-2-amine]
Ratio (Hh signaling pathway [1]; [5]): 8.1 | IC50 (Hh signaling pathway [1]; [6]): 2.2 nM

CCC(=O)Nc1ncc2c(n1)CCN(c1cc(-c3ncc(C)cc3C)c(Cl)cn1)[C@@H]2C [Compound B5, (R)—N-(6-(5′-chloro-3,5-dimethyl-[2,4′-bipyridin]-2′-yl)-5-methyl-5,6,7,8-tetrahydropyrido[4,3-d]pyrimidin-2-yl)propionamide]
Ratio (Hh signaling pathway [1]; [5]): 0.35 | IC50 (Hh signaling pathway [1]; [6]): 75 nM

Cc1cnc(-c2cc(N3CCc4nc(N5CCC(O)CC5)ncc4[C@@H]3C)ncc2Cl)c(C)c1 [Compound B2, (S)-1-(6-(5′-chloro-3,5-dimethyl-[2,4′-bipyridin]-2′-yl)-5-methyl-5,6,7,8-tetrahydropyrido[4,3-d]pyrimidin-2-yl)piperidin-4-ol]
Hh pathway inhibitory activity (in words) (Hh signaling pathway [1]): relatively poor | IC50 (Hh signaling pathway [1]; 48 h, 10 nM SAG as agonist, 48 hours, read-out: Effect IC50 (nM)(GRE reporter assay)): 17 nM | Ratio (Hh signaling pathway [1]; IC50 of vismodegib over that of the tested compound in the same assay): 1.1 | Ratio (Hh signaling pathway [1]; [5]): 1.1 | IC50 (Hh signaling pathway [1]; [6]): 17 nM

Cc1cnc(-c2cc(N3CCc4nc(NCC5CC5)ncc4C3C)ncc2Cl)c(C)c1 (stereo not shown) [E]
Ratio (Hh signaling pathway [1]; [5]): 1.74 | IC50 (Hh signaling pathway [1]; [6]): 7.7 nM
